# Assay: gradient 5% acetonitrile 3 min, to 50% in 2 min, to 85% in 15 min, held 3 min, 100 µL/min
# Conditions: column: Zorbax Extend-C18 2.1 x 50 mm; eluents: water / acetonitrile, 0.1% formic acid
# Method in brief: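 Data were gathered over 3 months by HPLC coupled to a quadrupole time-of-flight mass spectrometer, operated in positive and negative ionization mode. Mixtures of ~100 pure standards ran on a Zorbax Extend-C18 column (2.1 × 50 mm, 1.8 μm) at 100 μL/min, with water and acetonitrile each containing 0.1% formic acid and dead and dwell volumes of 40 μL and 900 μL. Retention time was read from adduct peaks picked by computer and checked manually.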
row,SMILES,RP-LC retention time
1,O=C(Nc1ccc(F)cc1)c1csc(-c2ccc(N3CCCC3)nc2)n1,743 s
2,CCc1noc(NC(C)=O)c1-c1ccc(OC)c(S(=O)(=O)Nc2ccc(F)cc2Cl)c1,841 s
3,Cc1noc(CNC(=O)C2CCN(C(=O)CSc3ccc(F)cc3)CC2)n1,645 s
4,COc1ccc(NC(=O)Cn2ccc3ccc(-c4nnc(C)o4)cc32)cc1,937 s
5,O=C(Nc1cccc(Cl)c1)Nc1ccc2nc3n(c(=O)c2c1)CCC3,736 s
6,Cc1ccc(-c2cc3n(n2)CCCN(C(=O)CCN2C(=O)NC(C)(C)C2=O)C3)cc1C,730 s
7,CN1c2ccc(F)cc2C(=O)NC12CCN(C(=O)Cc1ccc(Cl)cc1)CC2,795 s
8,COc1nc2ccccc2nc1N1CCCC(C(=O)Nc2ccc(Br)c(C)c2C)C1 (stereo unspecified),1260 s
9,Cc1ccc(NC(=O)Cn2nc3c(N4CCN(c5ccccc5C)CC4)nccn3c2=O)cc1F,1110 s
10,Cc1noc(C2CN(C(=O)COc3ccc(Cl)cc3)CC23CCOCC3)n1 (stereo unspecified),768 s
11,O=C(NOC[C@H](O)CO)c1ccc(F)c(F)c1Nc1ccc(I)cc1F,886 s
12,Cc1ccc(N2CC(c3noc(-c4ccc(C)c(C)c4)n3)CC2=O)cc1 (stereo unspecified),1150 s
13,CCOc1ccc(-c2c(C)nn3c(C)c(C(=O)NCCCN4CCCC4=O)cnc23)cc1OCC,744 s
14,COc1ccccc1OCc1nc(-c2ccc3ncn(C)c3c2)no1,693 s
15,COc1ccc(NC(=O)Cn2cnc3nc4c(cc3c2=O)CCCC4)cc1,695 s
16,CCOC(=O)c1cnc2nc(-c3ccccc3Cl)nn2c1C,945 s
17,NS(=O)(=O)c1ccc(CCNS(=O)(=O)c2ccc(-c3cc(C(F)(F)F)on3)o2)cc1,874 s
18,CC(C)CCn1c(SCc2cc(=O)n3ccccc3n2)nc2c(-c3ccccc3)cn(C)c2c1=O,1200 s
19,Cn1c(C2CCN(C(=O)Nc3ccc(Cl)cc3)CC2)cc(=O)n2nccc12,676 s
20,Cc1ccc(NC(=O)C2CCN(S(=O)(=O)c3cc(C(=O)N4CCCCCC4)cs3)CC2)nc1,754 s
21,CCc1ccc(C(=O)N2CCN(c3nnc4ccccn34)CC2)cc1,681 s
22,CCCn1cnc2c(Sc3c([N+](=O)[O-])ncn3C)nc(N)nc21,681 s

row,SMILES,RP-LC retention time
1,COc1cc(CN2CCCCCC2c2cccs2)ccc1OCC(N)=O (stereo unspecified),611 s
2,CCc1nn2c(CNS(=O)(=O)c3ccc(OC)cc3)c(-c3ccccc3)nc2s1,886 s
3,CC(=O)NCc1nc(-c2ccccc2Cl)no1,673 s
4,CCNC(=O)N1CC=C(C(=O)Nc2ccccc2)CC1,658 s
5,CCC1CCCCN1C(=O)c1cnc2nc(C)ccc2c1Nc1ccc(CC(=O)O)cc1 (stereo unspecified),598 s
6,CCCn1c(=O)sc2cc(S(=O)(=O)N3CCC(C(=O)NC(C)CC)CC3)ccc21 (stereo unspecified),853 s
7,CN(c1nccn2c(=O)n(CC(=O)Nc3ccc(F)c(Cl)c3)nc12)C1CCCCC1,819 s
8,O=C(Cc1c[nH]c2ccccc12)N1CCc2cc(-c3ccno3)ccc21,825 s
9,CCN1CCN(c2ncnc3sc(C(=O)NCCCOC)c(C)c23)CC1,563 s
10,COCCO[C@H]1C(=O)N(C2CCN(S(=O)(=O)C(C)C)CC2)[C@H]1c1ccncc1,572 s
11,CCN(CC)S(=O)(=O)c1ccc2c(c1)CC(C(=O)NCCN1CCCCC1)N2C(C)=O (stereo unspecified),610 s
12,Cc1cc(NC(=O)Cn2cnc(-c3cccs3)cc2=O)no1,669 s
13,Cc1cc(C)cc(NC(=O)C2CCCN(c3ccc4cc(S(=O)(=O)N5CCCC5)ccc4n3)C2)c1 (stereo unspecified),835 s
14,COCCNC(=O)c1csc(N2CCN(c3ccccc3)CC2)n1,863 s
15,COc1ccc(NC(=O)N2C[C@H]3C[C@H](C2)[C@H]2CCCC(=O)N2C3)cc1OC,612 s
16,Cc1ccc(OCC(=O)Nc2cc3c(cc2N2CCOCC2)n(C)c(=O)c(=O)n3C)c(C)c1,787 s
17,CNC(=O)c1ccc(Nc2c(-c3ccccc3)nc3cnccn23)cc1,644 s
18,CN1CCC2(CC1)CN(S(=O)(=O)N(C)C)CC2C(=O)N1CCc2ccccc21 (stereo unspecified),631 s
19,COc1ccccc1-c1cc(C(=O)N2CCN(c3ncccn3)CC2)c2ccccc2n1,803 s
20,CCCN(C)C(=O)c1cc2c(s1)N(CC1CC1)CCCC2,1160 s
21,Cc1cc(N2CCN(C(=O)c3ccc(N(C)C)cc3)CC2)nc2nncn12,575 s
22,CCc1cc(N2CCN(C(=O)c3ccc(N(C)C)cc3)CC2)nc2nnc(C)n12,599 s

row,SMILES,RP-LC retention time
1,Cc1nc2cc(-c3noc(CNC(=O)c4cccs4)n3)ccc2o1,747 s
2,Cn1cnc(S(=O)(=O)N2CCC(C(=O)NC3CCCCC3)CC2)c1,659 s
3,CCN(CC)S(=O)(=O)N1CCC(C(=O)NCCc2ccccc2)CC1,817 s
4,CCOc1ccc([C@H]2N(c3cc(C)on3)C(=O)[C@@H]3CCCN32)cc1,743 s
5,O=C(CC1CCN(C(=O)Nc2ccc(Br)cc2F)CC1)N1CCCCC1,835 s
6,CCN1C(=O)C(C)(C(=O)Nc2cc(OC)ccc2OC)Oc2cccnc21 (stereo unspecified),959 s
7,Cn1cc(-c2cc3n(n2)CCC(=O)N3CC(=O)NCc2ccco2)c2ccccc21,756 s
8,Cc1ccccc1CNC(=O)CN1CCN(Cc2ccccc2)C1=O,806 s
9,COc1cccc(C(=O)NCC(C)(O)C2CC2)c1OC (stereo unspecified),669 s
10,O=C(Nc1ccc(N2CCOCC2)cc1)C1CCCN(c2ncc(-c3ccccc3)cn2)C1 (stereo unspecified),925 s
11,O=C(NC1CC1)c1ccc2c(c1)CCN2C(=O)C1CC1,673 s
12,Cc1ccc(CNC(=O)C2CCCN(c3nnc(C)c4c(C)n(-c5ccc(Cl)cc5)nc34)C2)cc1 (stereo unspecified),784 s
13,COc1cccc(OC)c1C(=O)Nc1nc(-c2ccc3c(c2)NC(=O)CO3)c(C)s1,785 s
14,CCc1ccc(S(=O)(=O)N2CCC3(CC2)NCCN=C3NCc2cccc(F)c2)cc1,772 s
15,CCc1ccc2[nH]c3c(c(=O)c2c1)CN(CC(=O)NCc1ccc(Cl)cc1)CC3,656 s
16,O=S(=O)(Cc1cccc(Cl)c1)NCC1CCN(Cc2ccco2)CC1,573 s
17,CCSc1nnc(-c2nn(C)c3c2CN(S(=O)(=O)Cc2ccccc2F)CC3)n1CC,905 s
18,COc1ccc(CNC(=O)c2ccc3ncnc(N4CCCC4)c3c2)cc1,624 s
19,Cc1oc(-c2[nH]ncc2C(=O)N2CCCC2)cc1S(=O)(=O)NCc1ccccc1,700 s
20,CC(=O)N1CCCC1c1nc2ccccc2n1CC(=O)N1CCCC1 (stereo unspecified),574 s
21,CCOC(=O)c1ccc(N2CC3=C(C2=O)C(c2ccc(OC)cc2)NC(=O)N3C)cc1 (stereo unspecified),878 s
22,Cc1ccc2c(C(=O)NCc3ccc(C)o3)cc(NC(=O)C3CCC3)cc2n1,618 s

# From the METLIN SMRT retention time set (Domingo-Almenara et al. 2019)
